Laboratory results: ChEMBL document CHEMBL1938304, “Synthesis, characterization and activity of new phosphonate dipeptides as potential inhibitors of VanX” (Bioorg Med Chem Lett, 2012)
The source made the active and inactive calls. The calls are words filed in the database; no cut-off is given here.

How the values were obtained:
[1] = Inhibition of metallo-betalactamase CCrA using penicillin G as substrate up to 1 mM and pH 7
[2] = Inhibition of metallo-betalactamase L1 using penicillin G as substrate up to 1 mM and pH 7
[3] = Inhibition of metallo-betalactamase ImiS using penicillin G as substrate up to 1 mM and pH 7
[4] = molecular target: T1, D-alanyl-D-alanine dipeptidase (Enterococcus faecium, UniProt Q06241); experiment: Inhibition of Enterococcus faecium VanX overexpressed in Escherichia coli BL21 (DE3) cells using D-ala-D-ala as substrate preincubated for 30 mins measured after 150 secs by modified Cd-ninhydrin method
T1 sequence (Q06241 whole entry): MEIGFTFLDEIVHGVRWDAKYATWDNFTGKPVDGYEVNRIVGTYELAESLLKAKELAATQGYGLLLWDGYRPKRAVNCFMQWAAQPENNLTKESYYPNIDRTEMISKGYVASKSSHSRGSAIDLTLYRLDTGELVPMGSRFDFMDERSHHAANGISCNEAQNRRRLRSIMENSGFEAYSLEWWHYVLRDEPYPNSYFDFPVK

[5] = molecular target: T1, D-alanyl-D-alanine dipeptidase; experiment: Competitive inhibition of Enterococcus faecium VanX overexpressed in Escherichia coli BL21 (DE3) cells using D-ala-D-ala as substrate preincubated for 3 mins measured after 150 secs by modified Cd-ninhydrin method
[6] = molecular target: T2, D-alanyl-D-alanine dipeptidase (Enterococcus faecium) (UniProt Q06241); experiment: Inhibition of Enterococcus faecium VanX overexpressed in Escherichia coli BL21 (DE3) cells using D-ala-D-ala as substrate up to 5 mM preincubated for 30 mins measured after 150 secs by modified Cd-ninhydrin method
T2 sequence (whole entry): T1 sequence (Q06241 whole entry)

Structure (SMILES) | inhibition [1] | inhibition [2] | inhibition [3] | IC50 [4] [µM] | IC50 [5] [µM] | inhibition [6]
C[C@H](N)P(=O)(O)O[C@H](Cc1ccccc1)C(=O)O | inactive | inactive | inactive | 8210 | – | –
CC[C@H](C)[C@@H](OP(=O)(O)[C@H](C)N)C(=O)O | inactive | inactive | inactive | 1310 | – | –
CC(C)[C@@H](OP(=O)(O)[C@H](C)N)C(=O)O | inactive | inactive | inactive | 2820 | – | –
C[C@H](N)P(=O)(O)OCC(=O)O | inactive | inactive | inactive | 480 | – | –
CC(C)C[C@@H](OP(=O)(O)[C@H](C)N)C(=O)O | inactive | inactive | inactive | 1080 | – | –
C[C@H](N)P(=O)(O)O[C@H](C)C(=O)O | inactive | inactive | inactive | – | 760 | –
C[C@H](N)P(=O)(O)O[C@H](CCC(=O)O)C(=O)O | inactive | inactive | inactive | – | – | inactive
